The source of these data is US20260069606A1, “Oxidative Stress and Diabetes Treatment with Cobinamide” (The Regents of the University of California, priority 2022, published 2026).

Values joined by “and” are separate entries in the source; they are usually repeats but may differ in a detail not shown here. Equal values may be shown once. Read-outs that look alike come from different tables or passages of the source.

Data set [1] deals with COS-7 cells. The procedure:
(§1) FIGS. 3A-3H. […] FIGS. 3A-3B. […] FIG. 3A. […] FIG. 3B. […] FIGS. 3C-3D. […] FIG. 3D. […] FIGS. 3E-3F. […] FIG. 3E. Representative blots are shown. […] FIG. 3F. […] FIG. 3G. […] FIG. 3H.
Finally, whether cobinamide could alleviate the effects of oxidative stress induced by yet another mechanism in a different cell type was tested using paraquat-treated COS-7 cells. Paraquat generates O2·^− through a redox cycling mechanism and increases both intracellular O2·^− and H2O2^42.

The test system of data set [2] is D. melanogaster. The data set is described as follows: Survival of fruit flies during paraquat poisoning. The format is in vivo.
Protocol: The number of live flies was counted each day for 7 d. The experiment was repeated seven times, for a total of 70 flies per condition. The percent surviving flies was calculated; error bars represent standard deviations and are shown in one direction only for sake of clarity. […] Chi, cobinamide in Panel A and histidyl-cobinamide in Panels B-K; Imp, imisopasem; MnTP, MnTBAP; CbL, cobalamin; DNPH, 2,4-dinitrophenylhydrazine; ND, non-diabetic; D, diabetic; Veh, vehicle.
To test cobinamide in a whole animal, D. melanogaster was selected for initial studies, and oxidative stressed was increased in the files by administering paraquat in their food. Cobinamide was again compared to imisopasem, MnTBAP, and hydroxocobalamin, all administered in food.
The test system of data set [3] is H9c2 cells. The data set is described as follows: Mitochondrial membrane potential, JC-1 red to green fluorescence. The following applies: H9c2, 5 μM rotenone 30 min, drugs at 2.5 μM. The format is cell-based, rat. The protocol:
as §1
(§2) The cells were then washed once with PBS, placed back in the DMEM experimental medium, and incubated with the indicated drugs for 30 min. At the end of the incubation period, nuclei of both the MitoSOX Red- and JC-1-treated cells were stained with […] 4′,6-diamidino-2-phenyl-indole (DAPI) for 3 min, washed once with PBS, and returned to the DMEM experimental medium. The cover slips were removed from the wells, mounted in the DMEM experimental medium, and red (MitoSOX Red and JC-1 aggregates), green (JC-1 monomers), and blue (DAPI) fluorescence intensity was assessed using a Keyence BZ-X700 fluorescence microscope at the following paired excitation/emission wavelengths, respectively: 560/630, 490/525, and 360/460 nm.
Increased mitochondrial O2·^− by rotenone would be expected to reduce the mitochondrial membrane potential (ΔΨm), due in part to activation of uncoupling proteins^39. […] Rotenone caused an almost complete loss of red fluorescence and a striking increase in green fluorescence in the cells, indicating a marked decrease in ΔΨm (FIGS. 3C-3D).

For data set [4] the following is noted: second order; literature values; cited from earlier work.
The conditions of data set [5]: second order; literature values; cited from earlier work. This is another data set of the same source.
For data set [6] the following is noted: literature values, cited from earlier work; for Rate constant, reaction with nitric oxide (·NO), published: second order.
Data set [7] deals with Jun N-terminal kinase (JNK) phosphorylation in H9c2 cells. The data set is described as follows: H2O2-induced JNK phosphorylation, immunoblotting. The conditions noted are these: for JNK phosphorylation in H2O2-treated cells: H9c2, 100 μM H2O2 30 min, drugs at 100 μM. It is filed as cell-based, rat.
Text: as §1

Data set [8] has as its system H9c2 rat embryonal cardiomyocytes. The data set can be described thus: Mitochondrial superoxide content, MitoSOX Red fluorescence. It is filed as cell-based. The conditions noted are these: H9c2, 5 μM rotenone 30 min, drugs at 2.5 μM. The protocol: as §1
H9c2 cells were plated on glass cover slips in 24 well dishes, and 16 h later the medium was changed to phenol red-free DMEM supplemented with 20 mM Hepes, 0.1% fetal bovine serum, and 0.5% bovine serum albumin. […] MitoSOX Red is a dihydroethidium derivative containing triphenyl-phosphonium, which localizes it to respiring mitochondria. Its reaction with O2·^− yields 2-hydroxy-mitoethidium (2-OH-Mito-E″), whereas its reaction with other oxidative species yields mitoethidium (Mito-E^+)^67. These two oxidative derivatives have overlapping fluorescence spectra, but they can be distinguished by high performance liquid chromatography (HPLC)^68. Rotenone increased 2-OH-Mito-E^+ about two-fold, without increasing Mito-E^+. Thus, any increased fluorescence observed on treating cells with rotenone could be ascribed to an increase in 2-OH-Mito-E^+, and decreased fluorescence by an anti-oxidant in rotenone-treated cells was likely from a decrease in 2-OH-Mito-E^+.
as §2
To assess if cobinamide reduces oxidative stress in cells and to compare its […] efficacy to that of cobalamin, imisopasem, and MnTBAP, several sets of experiments were performed. First, whether cobinamide reduces mitochondrial-generated O2·^− was evaluated using the fluorescent probe MitoSOX Red. H9c2 rat embryonal cardiomyocytes were treated with rotenone, an inhibitor of complex I, to increase mitochondrial O2·^−. […] Monitoring the UV-visible spectrum of cobinamide is a sensitive means to assess ligand binding^38.

The conditions of data set [9]: literature values; not strictly comparable with third-order constants; cited from earlier work.
Data set [10] is described as follows: Reaction with superoxide, hypoxanthine-xanthine oxidase-cytochrome c reduction system. The following applies: for Apparent rate constant, reaction with superoxide (O2·^−): second order, hypoxanthine-xanthine oxidase-cytochrome c system, new data of this study. The format is biochemical. The protocol:
FIGS. 1A-1G. Cobinamide Functions as a Superoxide Dismutase Mimetic. FIGS. 1A-1B. Chemical structures of aquohydroxo-cobinamide (FIG. 1A) and hydroxo-cobalamin (FIG. 1B). FIGS. 1C, 1E. Increasing concentrations of Chi(III) (FIG. 1C) or Chi(II) (FIG. 1E) were incubated in a hypoxanthine-xanthine oxidase-cytochrome c-catalase system for measuring O2·^−, with the change in absorbance at 550 nm (ΔAbs) plotted versus time. A no substrate (no hypoxanthine) control was included. FIGS. 1D, 1F. The calculated rate of change of absorbance at 550 nm in the absence of Chi(III) or Chi(II) (Vo) divided by the calculated rate in their presence (v) is plotted against the Chi(III) (FIG. 1D) or Chi(II) (FIG. 1F) concentration, respectively. The slope of the fitted line was used to calculate the apparent rate constant according to the following equation: kCbi=slope×kcytochrome c×[cytochrome c], where kcytochrome c=1.4×10^6 M^−1 s^−1 and [cytochrome c]=70 μM^70. The data shown are the mean of duplicate samples from one experiment, with similar results found in two additional experiments. Dotted lines show 95% confidence intervals. FIG. 1G. A 20 μM solution of Chi(III) in DMSO was scanned from 280 to 600 nm yielding the spectrum shown as a black line. An equimolar amount of […] (KO2) dissolved in dimethyl sulfoxide (DMSO) was added and the solution was scanned immediately, yielding the grey line. […] The experiment was conducted three times with identical results.
(§3) Table I. Reaction Rates of Cobinamide (Cbi), Cobalamin, Imisopasem, and MnTBAP with Reactive Oxygen and Nitrogen Species. Reactions of the indicated compounds with O2·^−, ONOO^−, and ·NO are all second order reactions with rate constants in units of M^−1 s^−1. The reactions of Cbi(III) and Cbi(II) with H2O2 are third order with rate constant units of M^−2 s^−1. Chi(II) and cobalamin(II) bind nitric oxide, so a Ka is shown in units of M^−1. For the new data presented in this study, rate constants were measured for O2·^− using a hypoxanthine-xanthine oxidase-cytochrome c system, for H2O2 using a H2O2-specific sensor (World Precision Instruments), and for ONOO^− using a stopped-flow instrument. Published rate constants for Cu/Zn and Mn superoxide dismutases (SOD) and catalase are shown for reference.^a,b Letters and numbers in parenthesis refer to footnotes and references, respectively.
The reaction of cobinamide with O2·^− was studied in two different systems, generating O2·^− using a hypoxanthine-xanthine oxidase system.
The first system contained 100 μM hypoxanthine and 0.1 unit xanthine oxidase in 20 mM sodium phosphate buffer, pH 7.1. The amount of O2·^− was measured by following reduction of ferric-cytochrome c (70 μM) at 550 nm as described previously^65. Catalase was included (32 units per sample), because xanthine oxidase generates both O2·^− and H2O2, and the latter can re-oxidize the ferro-cytochrome c product^34,66. The reaction was followed for 10 min. A no substrate blank lacking hypoxanthine was included.
In both systems, the experiments were conducted in the absence and presence of the indicated concentrations of Cbi(III) or Chi(II) 65.
Catalase was included in the reaction mixture, because the hypoxanthine-xanthine oxidase system also generates H2O2 and the latter can oxidize the ferro-cytochrome c product back to ferric-cytochrome c, thereby interfering with the kinetic measurement^34.

The conditions of data set [11]: even on exposure to air.
Protocol: H9c2 cells were incubated for 30 min with vehicle, 2.5 μM cobinamide, or 5 μM rotenone, the latter in the absence or presence of 2.5 μM cobinamide, imisopasem, MnTBAP, or cobalamin; 5 μM MitoSOX was added during the last 10 min. The cells were incubated with 1 mg/ml DAPI for 3 min to counterstain nuclei, and then visualized under a fluorescence microscope. […] Equal-sized representative areas for each condition are shown for MitoSOX staining (red fluorescence) and the same area showing merged MitoSOX and DAPI staining. […] The amount of red fluorescence was quantified by Image J analysis. Data are the mean±SD of three independent experiments; in each experiment two separate equal-sized areas were analyzed containing ˜75 cells per area. […] H9c2 cells were incubated for 10 min with 10 μM JC-1, washed once with PBS, and then incubated for 30 min with vehicle, 2.5 μM cobinamide, or 5 μM rotenone in the absence or presence of 2.5 μM of the indicated drugs as described in Panels A, B. FIG. 3C. Cells were visualized under a fluorescence microscope and equal-sized representative areas of each condition are shown, with red and green fluorescence shown for the same area. […] The amount of red and green fluorescence was quantified by Image J analysis and the red to green ratio was calculated. The slides were analyzed by an operator who was blinded to the specific conditions. Data are the mean±SD of three independent experiments; in each experiment two separate equal-sized areas were analyzed containing ˜75 cells per area. […] Blots from four independent experiments were analyzed by densitometric scanning (Li-Cor Odyssey software) in a range where band intensity was linear. The ratio of the pJNK band to GAPDH was calculated, and the results normalized to control untreated cells. […] The UV-visible spectrum of Chi(III) in 50 mM potassium phosphate buffer, pH 7.4 was recorded before (black line) and immediately after adding a three-fold molar excess of ascorbate (blue line), cysteine (teal line), or reduced glutathione (GSH, pink line). […]
Data set [12] is described as follows: Reaction with hydrogen peroxide, H2O2-specific electrode. It is filed as biochemical. The protocol: (§4) FIGS. 2A-2F. Cobinamide Functions as a Catalase Mimetic and Reacts with Peroxynitrite. […]. Hydrogen peroxide (final concentration 50 μM) was added to solutions containing increasing concentrations of Chi(III) (FIG. 2A) or Chi(II) (FIG. 2C), and the H2O2 concentration was measured over time using a H2O2-specific electrode. The log of the velocity in the presence of Chi(III) (FIG. 2B) or Chi(II) (v) (FIG. 2D) over the velocity in their absence (Vo) is plotted against the log of their concentrations at 20 min over their concentrations at zero time. These plots yield a reaction order with respect to Chi(III) and Cbi(II) of 0.7. The experiments were repeated three times with similar results. Dotted lines show 95% confidence intervals. FIG. 2E. […] The Chi(III) spectra are slightly different from those shown in FIG. 1G because at pH 11, dihydroxo-cobinamide is generated, whereas at pH 7.1, aquohydroxo-cobinamide is the predominant species. The spectra of aquohydroxo- and dihydroxo-cobinamide are known to be different^65. FIG. 2F. Varying concentrations of Chi(II) from 1 to 10 μM were mixed with 10 μM peroxynitrite in a stopped-flow instrument, and absorption at 315 nm was monitored for 0.5 sec. The results for 5 μM Cbi(II) are shown; red circles are the observed data, and the black line is a two-phase non-linear regression curve generated by Prism 7.04 software. […] The experiment was repeated three times with similar results. Dotted lines show 95% confidence intervals.
as §3
Both Cbi(III) and Chi(II) react with H2O2, and the reaction was essentially first order with respect to Cbi(III) and Cbi(II) (FIG. 2A-D), and second order with respect to H2O2 for both cobinamide species. […]

Data set [13] can be described thus: Reaction with peroxynitrite, stopped-flow. It is filed as biochemical. The procedure:
as §4
as §3, with “Chi(II) and cobalamin(II) bind nitric oxide, so a Ka is shown in units of M^−1.” left out, “Published rate constants for Cu/Zn and Mn superoxide dismutases (SOD) and catalase are shown for reference.^a,b Letters and numbers in parenthesis refer to footnotes and references, respectively.” left out

For the compound `O=C(O)c1ccc(-c2c3nc(c(-c4ccc(C(=O)O)cc4)c4ccc([n-]4)c(-c4ccc(C(=O)O)cc4)c4nc(c(-c5ccc(C(=O)O)cc5)c5ccc2[n-]5)C=C4)C=C3)cc1.[Mn+3]` [MnTBAP, manganese(III)tetrakis(4-benzoicacid)porphyrin], the “Effect on cell growth of paraquat-treated cells” value in data set [1] (COS-7, 1 mM paraquat 3 h, 100 μM drug, counted 48 h later) was “neither imisopasem nor MnTBAP had an effect”. Also, the “Effect on mortality of paraquat-exposed flies” value in [2] (20 mM paraquat with 0.8 mM drug in food, over 7 d) is listed as “lesser effect”. Also, the “JC-1 red to green fluorescence ratio (ΔΨm) in rotenone-treated cells” value in data set [3] was “modest degrees of recovery”. In addition, the “Rate constant, reaction with superoxide (O2·^−), published” value in [4] is approximately 4.0 M⁻¹ s⁻¹. For the same compound, the “Rate constant, reaction with peroxynitrite (ONOO^−), published” value in [5] was ~1 × 10^5 (27) M^−1 s^−1. Besides, in data set [6], the “Rate constant, reaction with nitric oxide (·NO), published” value is “No activity (28)”. The “JNK phosphorylation in H2O2-treated cells” value in data set [7] is “small non-significant effects”. For the same compound, the “MitoSOX red fluorescence in rotenone-treated cells” value in data set [8] is “reduced the fluorescent signal substantially”. The “Rate constant, reaction with hydrogen peroxide (H2O2), published” value in data set [9] is 5.8.

For the compound hydroxo-cobalamin, the “Effect on cell growth of paraquat-treated cells” value in data set [1] is listed as “improved cell growth”. Further, in data set [2] (in vivo), the “Effect on mortality of paraquat-exposed flies” value is on record as “no significant effect”. In addition, the “JC-1 red to green fluorescence ratio (ΔΨm) in rotenone-treated cells” value in data set [3] is “modest degrees of recovery”. For the same compound, in [6], the “Rate constant, reaction with nitric oxide (·NO), published” value is given as “No activity (51, 71)”. In [10], the “Apparent rate constant, reaction with superoxide (O2·^−)” value was 9.4e+06 M⁻¹ s⁻¹. The “JNK phosphorylation in H2O2-treated cells” value in [7] is “no effect”. Further, the “MitoSOX red fluorescence in rotenone-treated cells” value in [8] was “reduced the fluorescent signal substantially”. The “Rate constant, reaction with hydrogen peroxide (H2O2), published” value in data set [9] was 4.5 × 10^6.

For `C/C1=C2/[N-][C@H]([C@H](CC(N)=O)[C@@]2(C)CCC(=O)NC[C@@H](C)O)[C@]2(C)N=C(/C(C)=C3N=C(/C=C4N=C1[C@@H](CCC(N)=O)C\4(C)C)[C@@H](CCC(N)=O)[C@]\3(C)CC(N)=O)[C@@H](CCC(N)=O)[C@]2(C)CC(N)=O.[Co]` [Cbi(II)], the “Persistence of the reduced state” value in [11] is “remains in the reduced state for several hours”. Also, the “Reaction order with respect to the cobinamide species in the reaction with H2O2” value in [12] (50 μM H2O2) was 0.7. Moreover, in data set [12] (third order, H2O2-specific sensor, new data of this study), the “Apparent rate constant, reaction with hydrogen peroxide (H2O2)” value was 3.7 × 10^4 M^−2 s^−1. For the same compound, the “Fold higher ONOO^− rate constant than MnTBAP” value in data set [13] (compared with published MnTBAP value) was more than 50 fold. The “Fold higher ONOO^− rate constant than cobalamin(II)” value in [13] (compared with published cobalamin(II) value) is recorded as “more than 10 fold”. Moreover, the “Apparent rate constant, reaction with peroxynitrite (ONOO^−)” value in [13] (second order, stopped-flow, 10 μM peroxynitrite, new data of this study) was 6.34×10^6 M^−1 s^−1 and 6.3 × 10^6 (^c) ^ M^−1 s^−1. Also, in data set [6], the “Ka, binding of nitric oxide (·NO), published” value was “Ka: 1.3 × 10^10 (51) M^−1”. In addition, the “Apparent rate constants, reaction with O2·^−” value in data set [10] (hypoxanthine-xanthine oxidase-cytochrome c reduction system, catalase included, exponent shared in the sentence) was 1.92e+08 M⁻¹ s⁻¹. Also, in data set [10], the “Apparent rate constant, reaction with superoxide (O2·^−)” value is 1.9e+08 M⁻¹ s⁻¹. In addition, the “JNK phosphorylation in H2O2-treated cells” value in data set [7] was “reduced JNK phosphorylation to a level that was indistinguishable from vehicle-treated cells”. Further, the “JNK phosphorylation or total cellular JNK in the absence of H2O2” value in [7] (H9c2, drug alone) is “neither Cbi(III), Cbi(II) nor the other three drugs affected JNK phosphorylation”.
